This is an account of results in patent US10576082B2, “ErbB2 regulates autophagic flux to modulate the proteostasis of APP-CTFs in alzheimer's disease” (Academia Sinica, priority 2016, dated 2020).

Test [1] relates to IMR32 neuroblastoma cells overexpressing C99-YFP. The test can be described thus: Western blotting of IMR32 cells overexpressing C99-YFP. The settings on record: compound 1 μM, 37° C., 24 h. The class given is cell-based, human. How it is done: (§1) (A) IMR32 cells overexpressing C99-YFP were grown with 2 ml fresh culture medium in 6-well plates, and treated with 1 μM CL-387,785 or DAPT at 37° C. for 24 h. The cell extracts were analyzed by Western blotting. (B) Conditional media were harvested and processed for determination of secreted Aβ40 using a colorimetric Aβ40-specific ELISA kit. (C) C99-YFP-expressing IMR32 cells (160,000 cells/well) were seeded onto 6-well plates and cultured at 37° C. for 24 h, and infected with ErbB1- or ErbB2-targeting shRNA lentivirus for an additional 48 h. Infection mixtures were replaced with 2 ml fresh culture medium, and infected cells were then incubated at 37° C. for an additional 24 h. The cell extracts were analyzed by Western blotting with anti-GFP antibody. (D) The conditioned media were harvested and processed for determination of secreted Aβ40. Data are the mean±SD from three independent experiments, and were analyzed by Student's t-tests. * p<0.05. […]
Preparation of cell extracts. […] Following the removal of cell debris by centrifugation, clarified lysates were processed for immunoprecipitation, Western blotting, or quantification of BCA protein content.
Western blotting analysis. Protein concentration was measured with the BCA Protein Assay Kit (Pierce). […] Quantitative analyses of blot images were processed using Image J software (NIH) to determine the relative densities of immunoreactive bands.

Test [2] concerns APPswe/PS1ΔE9 double transgenic mice. Kind of test: Co-immunoprecipitation (anti-BECN1) of brain lysates of treated APPswe/PS1ΔE9 mice. The class given is in vivo, mouse.
Test [3] deals with IMR32 neuroblastoma cells overexpressing C99-YFP. Kind of test: Secreted Aβ40 ELISA, conditional media of IMR32 cells overexpressing C99-YFP. It counts as cell-based, human. The settings on record: compound 1 μM, 37° C., 24 h. How it is done:
as §1, with “p<0.05. (E) Schematic presentation of the DNA construct encoding recombinant C99-GFP-P2A-GFP.” for “p<0.05.”
Cell-based γ-secretase assays for the nuclear function of AICD or NICD. […] Cellular luminescence was determined by the addition of Steady-Glo Luciferase Assay reagents (PROMEGA™), according to the manufacturer's instructions. […] The level of secreted Aβ40 was quantified using a human Aβ40 sandwich ELISA kit (Invitrogen) according to the manufacturer's instructions.
A general note: In an ELISA, binding on a coated surface is turned into a signal by an enzyme label.

Test [4] deals with APPswe/PS1ΔE9 double transgenic mice. Kind of test: Morris water maze in APPswe/PS1ΔE9 transgenic mice. The class given is in vivo, mouse. The settings on record: 5 mg/kg daily oral.

For `CC#CC(=O)Nc1ccc2ncnc(Nc3cccc(Br)c3)c2c1` [CL-387,785, N-[4-[(3-bromophenyl)amino]-6-quinazolinyl]-2-butynamide], in test [1], the “level of AICD” value was “significantly reduced” and the “level of C99” value was “significantly reduced”. Also, in test [2] (5 mg/kg daily oral, 20 days), the “phosphorylation of EGFR(ErbB1) in brain” value is “inhibited”. In addition, the “interaction between ErbB2 with Beclin-1 in brain” value in test [2] (5 mg/kg daily oral, 20 days, co-immunoprecipitation) is reported as “drastically suppressed”. In addition, in test [2] (summary statement for the compound (FIG. 7)), the “formation of the Beclin1-Vps34-Vps15 complex” value is listed as “rescues the formation”. Further, the “level of secreted Aβ40” value in test [3] is “significantly reduced”. In addition, the “probe test with invisible platform (cognitive function versus vehicle-treated AD mice)” value in test [4] (after 3 weeks of daily dosing (day 21)) is “dramatic cognitive improvement”. The “spatial learning (escape latency, Morris water maze)” value in test [4] (after 16 days of daily dosing) is listed as “significantly enhanced spatial learning”.
